Experimental data: US5620675A, “Radioactive peptides” (Diatech, Inc., priority 1993, dated 1997)
Starred links: 1 amine or outer side, 2 acyl side, 3 side chain; linkers in the order of their positions; H or OH if unused. Non-standard residues stand in square brackets, D forms with d. Residues, ends and D or L forms follow the SMILES beside them. *: point of attachment. DTPA = O=C(O)CN(CCN(CC(=O)O)CC(=O)O)CCN(CC(=O)O)CC(=O)*; Phe(4-Cl) = N[C@@H](Cc1ccc(Cl)cc1)C(=O)O; X4 = CC(C)(S)CNCCN(CCCCC(=O)*)CC(C)(C)S; 2Nal = N[C@@H](Cc1ccc2ccccc2c1)C(=O)O; d2Nal = N[C@H](Cc1ccc2ccccc2c1)C(=O)O; εLys = N[C@@H](CCCCN[*:1])C(=O)[*:2]; Acm = CC(=O)NC*

biological target: T1, somatostatin receptor (Rattus norvegicus, UniProt P30680); experiment: Inhibition of binding of [125I-Tyr11]somatostatin-14 to AR42J rat pancreatic tumor cell membranes; details: inhibition constant; displacement of 0.5 nM [125I-Tyr11]somatostatin-14 from AR42J cell membranes, 25 min at 30° C; free peptides and [Re=O]-complexed peptides
T1 construct: endogenous in cells; host or cells: AR42J rat pancreatic tumor cell line (membrane preparation)
T1 sequence (P30680 whole entry): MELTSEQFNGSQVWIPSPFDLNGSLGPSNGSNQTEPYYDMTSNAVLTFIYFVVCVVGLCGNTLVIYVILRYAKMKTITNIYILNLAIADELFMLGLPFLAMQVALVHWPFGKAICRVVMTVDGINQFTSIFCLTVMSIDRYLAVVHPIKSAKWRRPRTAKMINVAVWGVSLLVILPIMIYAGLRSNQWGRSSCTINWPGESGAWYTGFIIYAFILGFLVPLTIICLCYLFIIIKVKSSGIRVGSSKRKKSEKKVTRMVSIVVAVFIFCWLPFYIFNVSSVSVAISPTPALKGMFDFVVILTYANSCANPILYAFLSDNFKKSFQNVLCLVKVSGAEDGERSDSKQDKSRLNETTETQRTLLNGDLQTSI
Procedure: Inhibition of Binding of [^125 I-Tyr^11 ]somatostatin-14 to AR42J Rat Pancreatic Tumor Cell Membranes
The rat pancreatic tumor cell line AR42J which expresses the somatostatin receptor was cultured in Dulbecco's minimal essential media (DMEM) supplemented with 10% fetal bovine serum (FBS) and 8 mM glutamine in a humdified 5% CO2 atmosphere at 37° C. in T-flasks. Harvested cells were homogenized in cold 50 mM Tris-HCl buffer (pH 7.4) and the homogenate then centrifuged at 39,000 g for 10 min at 4° C. Pellets were washed once with buffer and then resuspended in an ice-cold solution of 10 mM Tris-HCl (pH 7.4). Equal aliquots of this cell membrane preparation were incubated with [^125 I-Tyr^11 ]somatostatin-14 (at a final concentration of 0.5nM and 750,000 cpm/mL, at a specific activity of 2000 Ci/mmol, Amersham, Arlington Heights, Ill.) and peptide at a final concentration of from 10^-11 M to 10^-6 M in a solution of 50 mM HEPES (pH 7.4) containing 1% bovine serum albumin (BSA), 5 mM MgCl2, Trasylol (200,000 International Units), bacitracin (0.02 mg/mL) and phenylmethylsulfonylfluoride (0.02 mg/mL) for 25 min at 30° C. Using a filtration manifold, this mixture was filtered through a polyethyleneimine-washed GC/F filter (Whatman, Maidstone, England), and the residue remaining on the filter wastled thrice with 5 mL cold HEPES buffer. The filter and a sample of the filter washings were then counted in a gamma counter. To assess non-specific binding, the assay was performed in the presence of unlabeled somatostatin-14 at 200 nM. Data analysis including Hill plots of the data provided inhibition constants (see Bylund & Yamamura, "Methods of receptor binding", in Methods in Neurotransmitter Receptor Analysis, Yamamura et al., eds., Raven Press: New York, 1990).

First: [DTPA].D-Nal.Cpa.YWD KTFT(ε-K)GC.amide
Second: C[C@@H](O)[C@H](NC(=O)[C@H](CCCCN)NC(=O)[C@@H](Cc1c[nH]c2ccccc12)NC(=O)[C@H](Cc1ccc(O)cc1)NC(=O)[C@H](Cc1ccc(Cl)cc1)NC(=O)[C@H](N)Cc1ccccc1)C(=O)N[C@@H](CS)C(=O)N[C@@H](Cc1ccc2ccccc2c1)C(N)=O [FD.Cpa.YWD KTC.Nal.amide] (H-[dF][Phe(4-Cl)]Y[dW]KTC[2Nal]-NH2)
The Ki of the first is 1200-fold lower: 0.007 nM for the first, 8.2 nM for the second. The first binds more tightly here.

`C[C@@H](O)[C@H](NC(=O)[C@H](Cc1ccccc1)NC(=O)[C@@H](NC(=O)[C@H](CCCCN)NC(=O)[C@@H](Cc1c[nH]c2ccccc12)NC(=O)[C@H](Cc1ccc(O)cc1)NC(=O)[C@H](Cc1ccc(Cl)cc1)NC(=O)[C@@H](Cc1ccc2ccccc2c1)NC(=O)CN(CCN(CCN(CC(=O)O)CC(=O)O)CC(=O)O)CC(=O)O)[C@@H](C)O)C(=O)NCCCC[C@H](N)C(=O)NCC(=O)N[C@@H](CS)C(=O)N[C@@H](CCCCN)C(=O)N[C@@H](CCCCN)C(N)=O` [[DTPA].D-Nal.Cpa.YWD KTFT(ε-K)GCKK.amide] ({DTPA}-[d2Nal][Phe(4-Cl)]Y[dW]KTFT[εLys]GCKK-NH2) and maGGGFD.Cpa.YWD KTFT.amide are within 1.5-fold of each other in Ki: 1.3 nM for the first, 0.97 nM for the second.

Compared with AKCGGGFD FYWD KTFT.amide, Ac.FD FYWD KTFGGG(ε-K)KC.amide is 2.1-fold higher in Ki: 2.9 nM for the first, 6.1 nM for the second. The first binds more tightly here.

Compared with AKCGGGFD.Cpa.YWD KTFT.amide, `C[C@@H](O)[C@H](NC(=O)[C@H](Cc1ccccc1)NC(=O)[C@@H](NC(=O)[C@H](CCCCN)NC(=O)[C@@H](Cc1c[nH]c2ccccc12)NC(=O)[C@H](Cc1ccc(O)cc1)NC(=O)[C@H](Cc1ccccc1)NC(=O)[C@@H](Cc1ccccc1)NC(=O)[C@H](CS)NC(=O)CNC(=O)[C@@H](N)CCCCNC(=O)CN(CCN(CCN(CC(=O)O)CC(=O)O)CC(=O)O)CC(=O)O)[C@@H](C)O)C(N)=O` [[DTPA].(ε-K)GCFD.FYWD KTFT.amide] (H-K(DTPA)GC[dF]FY[dW]KTFT-NH2) is 4.3-fold higher in Ki: 0.76 nM for the first, 3.3 nM for the second. The first binds more tightly here.

Ac.FD FYWD KTFTGGG(ε-K)GC.amide and `CC(=O)N[C@H](Cc1ccccc1)C(=O)N[C@@H](Cc1ccccc1)C(=O)N[C@@H](Cc1ccc(O)cc1)C(=O)N[C@H](Cc1c[nH]c2ccccc12)C(=O)N[C@@H](CCCCN)C(=O)N[C@H](C(=O)N[C@@H](Cc1ccccc1)C(=O)N[C@H](C(=O)NCC(=O)NCC(=O)NCC(=O)NCCCC[C@H](N)C(=O)NCC(=O)N[C@@H](CS)C(N)=O)[C@@H](C)O)[C@@H](C)O` [Ac.FD FYWD KTFTGGG(ε-K)GC.amide] (Ac-[dF]FY[dW]KTFTGGG[εLys]GC-NH2) are within 1.5-fold of each other in Ki: 8.1 nM for the first, 8.2 nM for the second.

Going from [DTPA].Aca.FD.Cpa.YWD KTFT(ε-K)GC.amide to Ac.FD FYWD KTFT(ε-K)GC.amide, the Ki falls from 8.2 nM to 1.5 nM (5.5-fold). The second binds more tightly here.

Compared with `CSC[C@H](NC(=O)[C@@H](NC(=O)[C@H](CCCCN)NC(=O)[C@@H](Cc1c[nH]c2ccccc12)NC(=O)[C@H](Cc1ccc(O)cc1)NC(=O)[C@H](CSC)NC(=O)[C@@H](Cc1ccc2ccccc2c1)NC(=O)[C@@H](N)CCCCNC(=O)CCCCN(CCNCC(C)(C)S)CC(C)(C)S)C(C)C)C(=O)N[C@H](C(N)=O)[C@@H](C)O` [K.[BAT].D-Nal.CMe YWD KVCMe T.amide, K(BAT).D-Nal.CMe YWD KVCMe T.amide] (H-K(X4)[d2Nal]C(Me)Y[dW]KVC(Me)T-NH2; N-terminus assumed), `CC(=O)N[C@@H](CS)C(=O)NCC(=O)N[C@@H](CS)C(=O)N[C@H](Cc1ccccc1)C(=O)N[C@@H](Cc1ccc(Cl)cc1)C(=O)N[C@@H](Cc1ccc(O)cc1)C(=O)N[C@H](Cc1c[nH]c2ccccc12)C(=O)N[C@@H](CCCCN)C(=O)N[C@H](C(=O)N[C@@H](Cc1ccccc1)C(=O)N[C@H](C(N)=O)[C@@H](C)O)[C@@H](C)O` [Ac.CGCFD.Cpa.YWD KTFT.amide] (Ac-CGC[dF][Phe(4-Cl)]Y[dW]KTFT-NH2) is 2.2-fold lower in Ki: 9.9 nM for the first, 4.4 nM for the second. The second binds more tightly here.

Going from “FD.CPa.YWD KTFTCGC.amide (not fully specified; Re=O complex; FD.CPa.YWD prefix; C-terminal amide)” to `CC(=O)NCSC[C@H](NC(=O)CNC(=O)[C@H](CSCNC(C)=O)NC(=O)[C@@H](NC(=O)[C@H](Cc1ccccc1)NC(=O)[C@@H](NC(=O)[C@H](CCCCN)NC(=O)[C@@H](Cc1c[nH]c2ccccc12)NC(=O)[C@H](Cc1ccc(O)cc1)NC(=O)[C@H](Cc1ccc(Cl)cc1)NC(=O)[C@H](N)Cc1ccccc1)[C@@H](C)O)[C@@H](C)O)C(N)=O` [FD.CPa.YWD KTFTCAcm GCAcm.amide, FD.Cpa.YWD KTFTCAcm GCAcm.amide] (H-[dF][Phe(4-Cl)]Y[dW]KTFTC(Acm)GC(Acm)-NH2), the Ki rises from 0.37 nM to 0.85 nM (2.3-fold). The first binds more tightly here.

First: Ac.CGCFD.Cpa.YWD KTFT.amide
Second: CC(=O)NCSC[C@H](NC(C)=O)C(=O)NCC(=O)N[C@@H](CSCNC(C)=O)C(=O)N[C@H](Cc1ccccc1)C(=O)N[C@@H](Cc1ccc(Cl)cc1)C(=O)N[C@@H](Cc1ccc(O)cc1)C(=O)N[C@H](Cc1c[nH]c2ccccc12)C(=O)N[C@@H](CCCCN)C(=O)N[C@H](C(=O)N[C@@H](Cc1ccccc1)C(=O)N[C@H](C(N)=O)[C@@H](C)O)[C@@H](C)O [Ac.CAcm GCAcm FD.CPa.YWD KTFT.amide, Ac.CAcm GCAcm FD.Cpa.YWD KTFT.amide] (Ac-C(Acm)GC(Acm)[dF][Phe(4-Cl)]Y[dW]KTFT-NH2)
The Ki of the first is 5.6-fold higher: 4.1 nM for the first, 0.73 nM for the second.

Compared with FD.Cpa.YWD K.Abu.Nal.T(ε-K)GC.amide, [DTPA].FD.Cpa.YWD KTFT(ε-K)GC.amide is 120-fold lower in Ki: 3.3 nM for the first, 0.027 nM for the second. The second binds more tightly here.

First: CC(=O)NCSC[C@H](NC(=O)CNC(=O)[C@H](CSCNC(C)=O)NC(=O)CNC(=O)CNC(=O)CNC(=O)[C@@H](NC(=O)[C@H](Cc1ccccc1)NC(=O)[C@@H](NC(=O)[C@H](CCCCN)NC(=O)[C@@H](Cc1c[nH]c2ccccc12)NC(=O)[C@H](Cc1ccc(O)cc1)NC(=O)[C@H](Cc1ccc(Cl)cc1)NC(=O)[C@H](N)Cc1ccccc1)[C@@H](C)O)[C@@H](C)O)C(N)=O [FD.Cpa.YWD KTFT.GGGCAcm GCAcm.amide] (H-[dF][Phe(4-Cl)]Y[dW]KTFTGGGC(Acm)GC(Acm)-NH2)
Second: FD.Cpa.YWD KTFT(ε-K)GC.amide
The Ki of the first is 6.7-fold higher: 2.4 nM for the first, 0.36 nM for the second.
